# Values joined by “and” are separate entries in the source; they are usually repeats but may differ in a detail not shown here. Equal entries are not always repeated.
# How the values were obtained:
# [1] = 7-day PK study in healthy rats; format: in vivo; conditions: healthy rats
# Method: Samples were prepared as described in [10] with modifications to accommodate the small tissue sizes and enhance the detection sensitivity. Quantitative liquid chromatography electrospray-ionization tandem mass spectrometry (LCMS/MS) analysis was performed on a Shimadzu 20A series HPLC (LC)-Applied Biosystems/MDS Sciex API 3200 QTrap or API 4000 QTrap tandem-mass spectrometer (MS/MS) as described earlier. The use of heptafluorobutyric acid (HFBA) mobile phase modifier as an ion-pairing agent increases the overall lipophilicity and volatility, which increases the retention and ionization efficiency of the analytes, affording an abundance of HFBA-associated ions. […] (OH)FeTnBuOE-2-PyP^4+ was prepared as described for other Fe(III) N-alkylpyridylporphyrins and analogous (H2O)MnTnBuOE-2-PyP^5+ [13, 16]. The solvents employed were: A = 95:5 H2O:MeCN (0.1% HFBA); B = MeCN (0.1% HFBA). […] With the chosen solvent system, all four atropoisomers collapsed into a single peak, enhancing the sensitivity of the method to as low as 0.5 nM (nanomoles per L of tissue homogenate). Analyses were performed using a Phenomenex Luna C18 guard cartridge (ID × L, 2 × 4 mm) only. […] Their structures are also shown. […] The response was calculated as the ratio between the standard peak area and the internal standard peak area. We conducted a 7-day rat PK study under conditions identical to those that afforded the therapeutic efficacy of MnTnHex-2-PyP^5+ in an earlier study. […] Afterwards, blood/plasma samples were collected before injection and at 2 h after 24 h-injections (every second injection). Liver and brains were taken for analysis 12 h after the last injection. Three rats were used per compound. After the single (first) SC injection, we obtained a prototypical PK profile observed in the case of all Mn(III) ortho […] In contrast, although similarly absorbed after SC injection, the […] Our understanding is that the “elimination” process is actually a fast distribution/retention into/by the liver, kidney, and spleen, a multi-compartmental process responsible for early decay of the plasma concentration, observed for all Mn porphyrin analogs investigated.
# [2] = 2-h PK study in rats that underwent MCAO; format: in vivo; conditions: rats after 90-min MCAO, 0.225 mg/kg IV + 0.225 mg/kg SC, 2 h after reperfusion
# Method: Samples were prepared as described in [10] with modifications to accommodate the small tissue sizes and enhance the detection sensitivity. Quantitative liquid chromatography electrospray-ionization tandem mass spectrometry (LCMS/MS) analysis was performed on a Shimadzu 20A series HPLC (LC)-Applied Biosystems/MDS Sciex API 3200 QTrap or API 4000 QTrap tandem-mass spectrometer (MS/MS) as described earlier. The use of heptafluorobutyric acid (HFBA) mobile phase modifier as an ion-pairing agent increases the overall lipophilicity and volatility, which increases the retention and ionization efficiency of the analytes, affording an abundance of HFBA-associated ions. […] (OH)FeTnBuOE-2-PyP^4+ was prepared as described for other Fe(III) N-alkylpyridylporphyrins and analogous (H2O)MnTnBuOE-2-PyP^5+ [13, 16]. The solvents employed were: A = 95:5 H2O:MeCN (0.1% HFBA); B = MeCN (0.1% HFBA). […] With the chosen solvent system, all four atropoisomers collapsed into a single peak, enhancing the sensitivity of the method to as low as 0.5 nM (nanomoles per L of tissue homogenate). Analyses were performed using a Phenomenex Luna C18 guard cartridge (ID × L, 2 × 4 mm) only. […] Their structures are also shown. […] The response was calculated as the ratio between the standard peak area and the internal standard peak area. Another possible cause for the failure of therapeutics in stroke may be their slow accumulation in the brain, i.e., not being there in time to prevent the burst of reactive species and rapid activation of transcription factors, which perpetuate oxidative stress. We therefore conducted short-term 2-h PK to evaluate how fast post-MCAO our drug gets into the brain. Three rats per compound were subjected to 90 min of transient right MCAO as reported. The first dose of 0.225 mg/kg was given IV via the […] at 5 min after ischemia/reperfusion. The second dose of 0.225 mg/kg was given SC at 30 min after reperfusion. Blood was collected at 2 h and plasma harvested. Rats were perfused with heparin saline (2000 IU/500 mL) until no reddish fluid came out from the right atrium. Then, the liver, and left and right brain were collected and placed on dry ice and stored at -20 °C. Plasma, liver, and brain were analyzed by LCMS/MS.
# [3] = test system: rat MCAO stroke model; assay: 7-day rat MCAO efficacy study; format: in vivo, rats; conditions: 0.225 mg/kg twice per day 7 days
# Method: The 7-day rat MCAO study was done as described in [9]. The 250–275 g Wistar rats were used as another species is a requirement for preclinical stroke research. The duration of the right MCAO was 90 min. […] The first dose was given IV slowly via the […] at 5 min after ischemia/reperfusion. The following doses were given SC. At day 7 post-injury, a person blinded to the treatment groups assessed the neurological deficit and then brains were harvested for infarct volume measurements.
# [4] = cited from earlier work
# [5] = test system: mice; conditions: mouse, in vivo, ip, 10 mg/kg; cited from earlier work
# [6] = test system: mice; conditions: mice, 5 mg/kg IP injection; cited from earlier work
# [7] = mouse, in vivo; cited from earlier work
# [8] = in vivo; cited from earlier work
# [9] = test system: rat middle cerebral artery occlusion (MCAO) stroke model; conditions: cited from earlier work
# [10] = SC 0.225 mg/kg BID 7 days, 12 h after last injection
# [11] = SC 0.225 mg/kg BID 7 days, WinNonlin simulation
compound,measurement,setting,value
"CCCCCC[n+]1ccccc1-c1c2nc(c(-c3cccc[n+]3CCCCCC)c3ccc([n-]3)c(-c3cccc[n+]3CCCCCC)c3nc(c(-c4cccc[n+]4CCCCCC)c4ccc1[n-]4)C=C3)C=C2.[Mn+3] [MnHex, Mn(III) meso-tetrakis(N-n-hexylpyridinium-2-yl)porphyrin]",brain level at end of 7-day treatment,[1]; SC 0.225 mg/kg BID 7 days,25 nM
same,brain concentration at end of 7-day treatment,[1]; [10],25 nM
same,end-of-treatment 7-day liver tissue level,[1]; [10],21 µM
same,average plasma concentration (Caver),[1]; [11],76 nM
same,plasma AUC,[1]; [11],11.5 µM·h
same,Cmax,"[1]; SC 0.225 mg/kg BID 7 days, WinNonlin simulation, read-out: Cmax at steady state, plasma",220 nM
same,elimination from plasma after single (first) SC injection,"[1]; SC 0.225 mg/kg, first 12 h",eliminated from plasma within 12 h
same,plasma half-life,"[1]; SC 0.225 mg/kg, estimated from simulation, 0.225 mg/kg",1.4 h and ~ 1.4 h
same,level in injured (right) brain hemisphere,[2],~ 35 nM
same,"p, cortex infarct volume vs vehicle",[3],0.046
same,"p, neuroscore vs vehicle",[3],0.016
same,"p, subcortex infarct volume vs vehicle",[3],0.049
same,"p, total infarct volume vs vehicle",[3],0.029
same,neurological deficit (neuroscore and infarct volume),"[3]; first dose IV, then SC",significantly improved
same,"log kcat(O2^•−), log of rate constant for catalysis of O2^•− dismutation",[4],7.48
same,blood pressure drop,[5],does cause a blood pressure drop
same,toxicity / death of mice,[6],mice died
same,accumulation in mitochondria relative to cytosol,[7],3.6 fold
same,blood–brain barrier crossing,[8],crosses the BBB
same,infarct size in earlier 7-day MCAO study,[9],significantly reduced the infarct size
same,"neurologic outcome, infarct size and inflammation",[9]; rat MCAO stroke model and subarachnoid hemorrhage,improved the neurologic outcome and decreased infarct size and inflammation
same,brain level in earlier 7-day MCAO study,"[9]; rat, in vivo",~ 30 nM

# — paper PMC7346179, “Fe Porphyrin-Based SOD Mimic and Redox-Active Compound, (OH)FeTnHex-2-PyP^4+, in a Rodent Ischemic Stroke (MCAO) Model: Efficacy and Pharmacokinetics as Compared to Its Mn Analogue, (H2O)MnTnHex-2-PyP^5+” (Antioxidants, 2020)
